# Assay results reported in patent US8933039B2 (NPS Pharmaceuticals, Inc., priority 1995, dated 2015).
# Non-standard residues stand in square brackets, D forms with d. Residues, ends and D or L forms follow the SMILES beside them. Met(O) = CS(=O)CC[C@H](N)C(=O)O; Nle = CCCC[C@H](N)C(=O)O
# System: CD1 mice
# Test: Intestinotrophic activity assessment: small bowel weight in mice
# Format: in vivo
# Settings: for % Increase in small bowel weight: CD1 mice, 2.5 μg peptide s.c. b.i.d. in PBS, sacrificed 10 or 14 days, relative to vehicle only; for % Activity (small bowel inducing activity relative to native rat GLP-2(1-33) = 100%): mice, as Example 4
# Protocol: Recipients were CD1 mice obtained from Charles River Laboratory (Ontario, Canada). The CD1 mice were aged-matched females at time of injection (n=3-4 per group), 6 weeks of age, unless otherwise specified. The animals were allowed a minimum of 24 hours to acclimatize to the laboratory facility before the initiation of each experiment. Animals were identified by ear punch. The mice were not restricted by diet or activity during the experiments. The light/dark cycle was 12 hours, between 6 pm to 6 am. Controls were age- and sex-matched (n=3-4) animals. Mice were injected subcutaneously, twice a day (b.i.d.), with 2.5 μg peptide in a total volume of 0.5 cc of PBS and were monitored daily in the laboratory facility. Animals were sacrificed 10 or 14 days after injection, and were fasted at least 20 hours before sacrifice.
# The mice were anaesthetised with CO2 and exsanguinated by cardiac puncture. Blood was collected in 75 μl of TED (Trasysol; EDTA (5000 KIU/ml: 1.2 mg/ml; Diprotin-A), and the blood was centrifuged at 14 k×g for 5 minutes and the plasma was stored at −70 prior to analysis. The small bowel was removed from the peritoneal cavity, from pylorus to cecum, cleaned weighed and measured. For comparative purpose, sections from each animal were obtained from the identical anatomical position. Fragments each measuring 1.5-2.0 cm in length were obtained 8±2 cm, 18±2 cm, 32±2 cm from pylorus for histomorphometry representing proximal jejunum, distal jejunum and distal ileum. Each small bowel fragment was opened longitudinally on its antimesenteric border in a tissue block and then placed on 10% formalin (vol./vol.) overnight, then transferred to 70% […].
# Percentage change in small bowel weight was calculated by dividing the mean change in bowel weight of analog treated mice, relative to mice treated with vehicle only, by the mean bowel weight of mice treated with vehicle only, and multiplying this figure by 100.
# Experiments assessing the small bowel inducing activity of various analogs was repeated as described above for Example 4. In these experiments, the small bowel inducing activity of each analog in mice was calculated relative to that of native rat GLP-2(1-33) (expressed as 100% of activity). Resistance of analogs to DPP-IV cleavage was performed as described above in Example 3.
Molecule,% Increase in small bowel weight [%],% Activity (small bowel inducing activity relative to native rat GLP-2(1-33) = 100%) [%],% Increase in small bowel weight (listed as [Leu^10]rGLP-2) [%]
"CCCC[C@H](NC(=O)[C@H](CCC(=O)O)NC(=O)[C@H](CC(=O)O)NC(=O)[C@H](CO)NC(=O)[C@H](Cc1ccccc1)NC(=O)[C@H](CO)NC(=O)CNC(=O)[C@H](CC(=O)O)NC(=O)[C@H](C)NC(=O)[C@@H](N)Cc1c[nH]cn1)C(=O)N[C@@H](CC(N)=O)C(=O)N[C@H](C(=O)N[C@H](C(=O)N[C@@H](CC(C)C)C(=O)N[C@@H](CC(=O)O)C(=O)N[C@@H](CC(N)=O)C(=O)N[C@@H](CC(C)C)C(=O)N[C@@H](C)C(=O)N[C@H](C(=O)N[C@@H](CCCNC(=N)N)C(=O)N[C@@H](CC(=O)O)C(=O)N[C@@H](Cc1ccccc1)C(=O)N[C@H](C(=O)N[C@@H](CC(N)=O)C(=O)N[C@@H](Cc1c[nH]c2ccccc12)C(=O)N[C@@H](CC(C)C)C(=O)N[C@H](C(=O)N[C@@H](CCC(N)=O)C(=O)N[C@H](C(=O)N[C@@H](CCCCN)C(=O)N[C@H](C(=O)N[C@H](C(=O)N[C@@H](CC(=O)O)C(=O)O)[C@@H](C)O)[C@@H](C)CC)[C@@H](C)O)[C@@H](C)CC)[C@@H](C)CC)[C@@H](C)O)[C@@H](C)CC)[C@@H](C)O [[Nlel0]ratGLP-2(1-33), [Nle^10]ratGLP-2(1-33)] (H-HADGSFSDE[Nle]NTILDNLATRDFINWLIQTKITD-OH)",52,100,–
"H-HGDGSFSDEMNTILDNLAARAFINWLIQTKITD-OH [[Gly2,Ala21]hGLP-2(1-33)]",35,125,–
"H-HGDGSFSDEMNTILDNLAARDFINWLIQTKATD-OH [[Gly2,Ala31]hGLP-2(1-33)]",28,100,–
CC[C@H](C)[C@H](NC(=O)[C@H](Cc1ccccc1)NC(=O)[C@H](CC(=O)O)NC(=O)[C@H](CCCNC(=N)N)NC(=O)[C@@H](NC(=O)[C@H](C)NC(=O)[C@H](CC(C)C)NC(=O)[C@H](CC(N)=O)NC(=O)[C@H](CC(=O)O)NC(=O)[C@H](CC(C)C)NC(=O)[C@@H](NC(=O)[C@@H](NC(=O)[C@H](CC(N)=O)NC(=O)[C@H](CC[S+](C)[O-])NC(=O)[C@H](CCC(=O)O)NC(=O)[C@H](CC(=O)O)NC(=O)[C@H](CO)NC(=O)[C@H](Cc1ccccc1)NC(=O)[C@H](CO)NC(=O)CNC(=O)[C@H](CC(=O)O)NC(=O)[C@H](C)NC(=O)[C@@H](N)Cc1c[nH]cn1)[C@@H](C)O)[C@@H](C)CC)[C@@H](C)O)C(=O)N[C@@H](CC(N)=O)C(=O)N[C@@H](Cc1c[nH]c2ccccc12)C(=O)N[C@@H](CC(C)C)C(=O)N[C@H](C(=O)N[C@@H](CCC(N)=O)C(=O)N[C@H](C(=O)N[C@@H](CCCCN)C(=O)N[C@H](C(=O)N[C@H](C(=O)N[C@@H](CC(=O)O)C(=O)O)[C@@H](C)O)[C@@H](C)CC)[C@@H](C)O)[C@@H](C)CC (stereo partly drawn) [[Met(O)10]ratGLP-2(1-33)] (H-HADGSFSDE[Met(O)]NTILDNLATRDFINWLIQTKITD-OH),–,18,–
"H-HGDGSFSDEMNTILDNLAARDFINWAIQTKITD-OH [[Gly2,Ala26]hGLP-2(1-33)]",–,28,–
"H-HGDGSFSDEMNTALDNLAARDFINWLIQTKITD-OH [[Gly2,Ala13]hGLP-2(1-33)]",18,67,–
H-HADGTFSDEMNTILDNLAARDFINWLIQTKITD-OH [[Thr5]hGLP-2(1-33)],–,73,–
"H-HGDGSFSDEANTILDNLAARDFINWLIQTKITD-OH [[Gly2,Ala10]hGLP-2(1-33)]",33,82,–
[Met SO2^10]rGLP-2,8,–,–
"H-HGDGSFSDEMNTILDNLAARDFINWLIATKITD-OH [[Gly2,Ala28]hGLP-2(1-33)]",31,130,–
"H-HGDGSFSDEMNTILDALAARDFINWLIQTKITD-OH [[Gly2,Ala16]hGLP-2(1-33)]",36,130,–
"H-HGDGSFSDEMNTILDNAAARDFINWLIQTKITD-OH [[Gly2,Ala17]hGLP-2(1-33)]",36,130,–
"H-HADGSFSDEMNTILDNLAARDFVQWLIQTKITD-OH [[Val23,Gln24]hGLP-2(1-33)]",36,82,–
H-HADGSFSDELNTILDNLATRDFINWLIQTKITD-OH [[Leu10]ratGLP-2(1-33)],–,51,26
H-HADGSFSDEMNTILDNLATKDFINWLIQTKITD-OH [[Lys20]ratGLP-2(1-33)],62,120,–
"H-HGDGSFSDEMNTIADNLAARDFINWLIQTKITD-OH [[Gly2,Ala14]hGLP-2(1-33)]",–,30,–
"H-HGDGSFSDAMNTILDNLAARDFINWLIQTKITD-OH [[Gly2,Ala9]hGLP-2(1-33)]",31,112,–
H-HADGSFSDEMNTILDNLAARDFINWLIQTKITN-OH [[Asn33]hGLP-2(1-33)],–,91,–
H-GSFSDEMNTILDNLATRDFINWLIQTKITD-OH [ratGLP-2(4-33)],–,6,–
CC[C@H](C)[C@H](NC(=O)[C@H](Cc1ccccc1)NC(=O)[C@H](CC(=O)O)NC(=O)[C@H](CCCNC(=N)N)NC(=O)[C@H](C)NC(=O)[C@H](C)NC(=O)[C@H](CC(C)C)NC(=O)[C@H](CC(N)=O)NC(=O)[C@H](CC(=O)O)NC(=O)[C@H](CC(C)C)NC(=O)[C@@H](NC(=O)[C@@H](NC(=O)[C@H](CC(N)=O)NC(=O)[C@H](CCSC)NC(=O)[C@H](CCC(=O)O)NC(=O)[C@H](CC(=O)O)NC(=O)[C@H](CO)NC(=O)[C@H](Cc1ccccc1)NC(=O)[C@H](CO)NC(=O)CNC(=O)[C@H](CC(=O)O)NC(=O)[C@H](C)NC(=O)[C@@H](N)Cc1c[nH]cn1)[C@@H](C)O)[C@@H](C)CC)C(=O)N[C@@H](CC(N)=O)C(=O)N[C@@H](Cc1c[nH]c2ccccc12)C(=O)N[C@@H](CC(C)C)C(=O)N[C@H](C(=O)N[C@@H](CCC(N)=O)C(=O)N[C@H](C(=O)N[C@@H](CCCCN)C(=O)N[C@H](C(=O)N[C@H](C(=O)N[C@@H](CC(=O)O)C(=O)N[C@@H](Cc1ccc(O)cc1)C(=O)O)[C@@H](C)O)[C@@H](C)CC)[C@@H](C)O)[C@@H](C)CC [[Tyr34]hGLP-2(1-34)],–,135,–
H-HADGSFSDEMNTILDNLATRDFINWLIQTKITD-NH2 [ratGLP-2(1-33)amide],23,56,–
"H-HGDGSFSDEMNTILDNLAAADFINWLIQTKITD-OH [[Gly2,Ala20]hGLP-2(1-33)]",46,105,–
"H-HGDGSFSDEMNTILDNLAARDFANWLIQTKITD-OH [[Gly2,Ala23]hGLP-2(1-33)]",–,24,–
"H-HGDGSFADEMNTILDNLAARDFINWLIQTKITD-OH [[Gly2,Ala7]hGLP-2(1-33)]",22,82,–
"H-HGDGSFSAEMNTILDNLAARDFINWLIQTKITD-OH [[Gly2,Ala8]hGLP-2(1-33)]",33,120,–
"H-HGDGSFSDEMNTILDNLAARDFINALIQTKITD-OH [[Gly2,Ala25]hGLP-2(1-33)]",–,18,–
"H-HGDGSFSDEMATILDNLAARDFINWLIQTKITD-OH [[Gly2,Ala11]hGLP-2(1-33)]",42,150,–
"H-HGDGSFSDEMNAILDNLAARDFINWLIQTKITD-OH [[Gly2,Ala12]hGLP-2(1-33)]",18,67,–
"H-HGDGSASDEMNTILDNLAARDFINWLIQTKITD-OH [[Gly2,Ala6]hGLP-2(1-33)]",18,67,–
